Measurements published in PubChem BioAssay AID1259407 (Chemical Carcinogenesis Research Information System (CCRIS), 2018).
Calls of active or inactive are those of the source. The rule behind the calls is not given here.

Tested on: CCRIS mutagenicity, Ames/micronucleus/aberration tests
Test: CCRIS mutagenicity studies

Measured: mutagenic call

C[C@@H]1Cc2c(Cl)cc(C(=O)NC(Cc3ccccc3)C(=O)O)c(O)c2C(=O)O1 (some centres not stated)
inactive: Test System: AMES SALMONELLA TYPHIMURIUM, Strain/Indicator: TA102, Metabolic Activation: RAT, LIVER, S-9, AROCLOR 1254, Method: STANDARD PLATE inactive; negative | Test System: AMES SALMONELLA TYPHIMURIUM, Strain/Indicator: TA104, Metabolic Activation: NONE, Method: PREINCUBATION inactive; negative | Test System: AMES SALMONELLA TYPHIMURIUM, Strain/Indicator: TA104, Metabolic Activation: RAT LIVER S-9, Method: PREINCUBATION inactive; negative | Test System: AMES SALMONELLA TYPHIMURIUM, Strain/Indicator: TA1535, Metabolic Activation: HAMSTER, LIVER, S-9, AROCLOR 1254 (10 OR 30%), Method: PREINCUBATION inactive; negative | Test System: AMES SALMONELLA TYPHIMURIUM, Strain/Indicator: TA1535, Metabolic Activation: HAMSTER, LIVER, S-9, AROCLOR 1254, Method: PREINCUBATION inactive; negative | Test System: AMES SALMONELLA TYPHIMURIUM, Strain/Indicator: TA1535, Metabolic Activation: MOUSE LIVER S-9 (10%), Method: MICROMETHOD inactive; negative | Test System: AMES SALMONELLA TYPHIMURIUM, Strain/Indicator: TA1535, Metabolic Activation: NONE, Method: STANDARD PLATE inactive; negative | Test System: AMES SALMONELLA TYPHIMURIUM, Strain/Indicator: TA1535, Metabolic Activation: RAT LIVER S-9, AROCLOR 1254 (10%), Method: MICROMETHOD inactive; negative | Test System: AMES SALMONELLA TYPHIMURIUM, Strain/Indicator: TA1535, Metabolic Activation: RAT LIVER S-9, Method: PREINCUBATION inactive; negative | Test System: AMES SALMONELLA TYPHIMURIUM, Strain/Indicator: TA1535, Metabolic Activation: RAT, LIVER, S-9, AROCLOR 1254 (10 OR 30%), Method: PREINCUBATION inactive; negative | Test System: AMES SALMONELLA TYPHIMURIUM, Strain/Indicator: TA1535, Metabolic Activation: RAT, LIVER, S-9, AROCLOR 1254, Method: PREINCUBATION inactive; negative | Test System: AMES SALMONELLA TYPHIMURIUM, Strain/Indicator: TA1535, Metabolic Activation: RAT, LIVER, S-9, AROCLOR 1254, Method: STANDARD PLATE inactive; negative | Test System: AMES SALMONELLA TYPHIMURIUM, Strain/Indicator: TA1537, Metabolic Activation: NONE, Method: PREINCUBATION inactive; negative | Test System: AMES SALMONELLA TYPHIMURIUM, Strain/Indicator: TA1537, Metabolic Activation: NONE, Method: STANDARD PLATE inactive; negative | Test System: AMES SALMONELLA TYPHIMURIUM, Strain/Indicator: TA1537, Metabolic Activation: RAT LIVER S-9, Method: PREINCUBATION inactive; negative | Test System: AMES SALMONELLA TYPHIMURIUM, Strain/Indicator: TA1537, Metabolic Activation: RAT, LIVER, S-9, AROCLOR 1254, Method: STANDARD PLATE inactive; negative | Test System: AMES SALMONELLA TYPHIMURIUM, Strain/Indicator: TA1538, Metabolic Activation: MOUSE LIVER S-9 (10%), Method: MICROMETHOD inactive; negative | Test System: AMES SALMONELLA TYPHIMURIUM, Strain/Indicator: TA1538, Metabolic Activation: NONE, Method: PREINCUBATION inactive; negative | Test System: AMES SALMONELLA TYPHIMURIUM, Strain/Indicator: TA1538, Metabolic Activation: NONE, Method: STANDARD PLATE inactive; negative | Test System: AMES SALMONELLA TYPHIMURIUM, Strain/Indicator: TA1538, Metabolic Activation: RAT LIVER S-9, AROCLOR 1254 (10%), Method: MICROMETHOD inactive; negative | Test System: AMES SALMONELLA TYPHIMURIUM, Strain/Indicator: TA1538, Metabolic Activation: RAT LIVER S-9, Method: PREINCUBATION inactive; negative | Test System: AMES SALMONELLA TYPHIMURIUM, Strain/Indicator: TA1538, Metabolic Activation: RAT, LIVER, S-9, AROCLOR 1254, Method: STANDARD PLATE inactive; negative | Test System: CHINESE HAMSTER V-79, Strain/Indicator: V-79(HPRT)/6-THIOGUANINE, Metabolic Activation: NONE inactive; negative | Test System: CHINESE HAMSTER V-79, Strain/Indicator: V-79(HPRT)/6-THIOGUANINE, Metabolic Activation: RAT LIVER S-9 inactive; negative | Test System: MOUSE LYMPHOMA, Strain/Indicator: L5178Y (TK+/TK-), Metabolic Activation: NONE, Method: SUSPENSION/PLATE inactive; negative | Test System: MOUSE LYMPHOMA, Strain/Indicator: L5178Y (TK+/TK-), Metabolic Activation: RAT, LIVER, S-9, AROCLOR 1254, Method: SUSPENSION/PLATE inactive; negative | Test System: UDS HUMAN INFANT UROTHELIAL CELLS, Strain/Indicator: THY INCORP, Metabolic Activation: NONE, Method: AUTORADIOGRAPHY inactive; negative | Test System: UDS RODENT PRIMARY CELLS, Metabolic Activation: NONE, Method: AUTORADIOGRAPHY (DNA REPAIR) inactive; negative
active: Test System: AMES SALMONELLA TYPHIMURIUM, Strain/Indicator: TA1535, Metabolic Activation: MOUSE KIDNEY S-9, NADP OR ARACHIDONIC ACID (10%), Method: MICROMETHOD active; positive | Test System: AMES SALMONELLA TYPHIMURIUM, Strain/Indicator: TA1538, Metabolic Activation: MOUSE KIDNEY S-9, NADP OR ARACHIDONIC ACID (10%), Method: MICROMETHOD active; positive | Test System: Chinese hamster lung cells, Strain/Indicator: V79 (HPRT)/6-Thioguanine, Metabolic Activation: None, Method: Standard plate active; positive (weak) | Test System: Chinese hamster lung cells, Strain/Indicator: V79 (HPRT)/6-Thioguanine, Metabolic Activation: Rat, Kidney, S-9 (phenobarbital/beta-naphthoflavone), Method: Standard plate active; positive (weak) | Test System: Mouse lymphoma cells, Strain/Indicator: L5178Y (tk+/tk-), Metabolic Activation: None, Method: Microtiter active; positive (weak) | Test System: Mouse lymphoma cells, Strain/Indicator: L5178Y (tk+/tk-), Metabolic Activation: Rat, Kidney, S-9 (phenobarbital/beta-naphthoflavone), Method: Microtiter active; positive (weak) | Test System: UDS HUMAN UROTHELIAL CELLS, Strain/Indicator: THY INCORP, Metabolic Activation: NONE, Method: AUTORADIOGRAPHY active; positive | Test System: UDS HUMAN UROTHELIAL CELLS, Strain/Indicator: THYMIDINE INCORPORATION, Metabolic Activation: NONE, Method: AUTORADIOGRAPHY active; positive | Test System: UDS PORCINE PRIMARY BLADDER EPITHELIAL CELL, Strain/Indicator: THY INCORP, Metabolic Activation: NONE, Method: AUTORADIOGRAPHY active; positive
